Values quoted from earlier work as cited in paper PMC5884906, “Single Administration of HBK-15—a Triple 5-HT1A, 5-HT7, and 5-HT3 Receptor Antagonist—Reverses Depressive-Like Behaviors in Mouse Model of Depression Induced by Corticosterone” (Molecular Neurobiology, 2017).

Assays:
D2 receptors = target: D2 receptors; parameters: method as in unpublished results; settings: not measured here; ref unpublished results; read-out: D2 receptor antagonism IC50; cited from earlier work
[1] = target: serotonergic 5-HT2A receptors; parameters: method as in PMID 26554929; settings: read-out: affinity for serotonergic 5-HT2A receptors, Ki; cited from earlier work
[2] = parameters: method as in unpublished results; settings: ref unpublished results; cited from earlier work
5-HT2A receptors = target: 5-HT2A receptors; parameters: method as in unpublished results; settings: not measured here; ref unpublished results; read-out: 5-HT2A receptor antagonism IC50; cited from earlier work

Compound: COc1ccccc1N1CCN(CCOCCOc2c(C)cccc2Cl)CC1.Cl [HBK-15, 1-[(2-chloro-6-methylphenoxy)ethoxyethyl]-4-(2-methoxyphenyl)piperazine hydrochloride]
- IC50 (D2 receptors): 68 nM
- Ki [1]: 109 nM
- antipsychotic-like or cataleptogenic properties [2]: did not show antipsychotic-like or cataleptogenic properties
- IC50 (5-HT2A receptors): 4460 nM
